Reference: patent US12497396B2, “Nitrogen-containing heterocyclic derivatives, method therefor and application therefor as inhibitors of KRAS G12C for the treatment of cancers” (SHANGHAI HANSOH BIOMEDICAL CO., LTD., priority 2019, dated 2025)
pIC50: −log10 of the molar value.

How the values were obtained:
hERG potassium channel = biological target: T1, hERG potassium channel (Homo sapiens, UniProt Q12809); experiment: hERG potassium channel inhibitory activity (Qpatch, CHO-hERG cells); format: cell-based; settings: inhibition of hERG current, multiple concentrations
T1 construct: expressed in transfected cells; host or cells: CHO-hERG cells
T1 sequence (Q12809 whole entry): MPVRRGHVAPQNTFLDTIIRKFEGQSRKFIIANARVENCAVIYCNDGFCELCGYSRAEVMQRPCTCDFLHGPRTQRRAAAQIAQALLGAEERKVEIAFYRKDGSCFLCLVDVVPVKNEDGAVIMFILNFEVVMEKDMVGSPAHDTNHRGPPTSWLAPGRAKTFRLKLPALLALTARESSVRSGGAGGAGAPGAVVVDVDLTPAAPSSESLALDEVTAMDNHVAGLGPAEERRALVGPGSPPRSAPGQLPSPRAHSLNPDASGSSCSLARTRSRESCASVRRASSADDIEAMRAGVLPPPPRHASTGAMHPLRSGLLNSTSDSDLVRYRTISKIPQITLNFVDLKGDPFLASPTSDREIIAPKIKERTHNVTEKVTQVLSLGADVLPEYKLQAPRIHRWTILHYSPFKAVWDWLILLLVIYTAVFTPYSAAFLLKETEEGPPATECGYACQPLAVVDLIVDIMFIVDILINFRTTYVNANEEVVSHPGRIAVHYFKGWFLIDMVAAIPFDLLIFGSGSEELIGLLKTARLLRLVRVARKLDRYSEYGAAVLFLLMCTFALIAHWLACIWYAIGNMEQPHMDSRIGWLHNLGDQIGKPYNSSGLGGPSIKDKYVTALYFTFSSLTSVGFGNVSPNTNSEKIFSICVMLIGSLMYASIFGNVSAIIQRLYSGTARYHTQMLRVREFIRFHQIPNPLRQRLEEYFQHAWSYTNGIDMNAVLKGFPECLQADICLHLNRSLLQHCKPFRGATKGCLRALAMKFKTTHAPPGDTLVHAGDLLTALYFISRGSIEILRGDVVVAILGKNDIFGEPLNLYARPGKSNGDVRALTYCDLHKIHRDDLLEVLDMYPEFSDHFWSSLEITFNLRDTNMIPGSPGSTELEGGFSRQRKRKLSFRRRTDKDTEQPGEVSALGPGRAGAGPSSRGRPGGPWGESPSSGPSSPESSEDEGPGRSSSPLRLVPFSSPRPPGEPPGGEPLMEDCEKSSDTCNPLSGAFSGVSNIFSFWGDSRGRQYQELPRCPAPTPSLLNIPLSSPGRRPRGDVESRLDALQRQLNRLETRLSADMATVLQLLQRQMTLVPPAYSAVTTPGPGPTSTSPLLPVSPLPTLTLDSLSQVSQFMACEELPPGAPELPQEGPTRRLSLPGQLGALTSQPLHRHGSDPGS
Experimental: 7.1.1 CHO-hERG cells were cultured in a 175 cm^2 flask, when the cell density reached 60-80%, the culture medium was removed, the cells were washed with 7 mL PBS, and then digested with 3 mL Detachin.
7.1.2 After complete digestion, 7 mL culture medium was added to neutralize, then the mixture was centrifuged, the supernatant was aspirated, and then 5 mL culture medium was added to re-suspend, ensuring 2-5×10^6/mL of cell density.
The process of single cell high impedance sealing and whole cell mode formation were all automatically completed by Qpatch instrument, after obtaining the whole cell recording mode, the cells were clamped at −80 mV, before giving a 5-second +40 mV depolarization stimulus, a 50 millisecond −50 mV prevoltage was given first, and then repolarized to −50 mV for 5 seconds, then returned to −80 mV. This voltage stimulation was applied every 15 seconds and recorded for 2 minutes before giving extracellular fluid recordings for 5 minutes, and then the administration process was started, the compound concentration was given from the lowest test concentration, each test concentration was given for 2.5 minutes, and the positive control compound 0.1 μM of Cisapride was given after all concentrations were continuously given. At least 3 cells (n≥3) were tested at each concentration.
7.4.1 20 mM of compound mother liquor was diluted with extracellular fluid, 5 μL of 20 mM compound mother liquor was added into 2495 μL of extracellular fluid and diluted 500-fold to 40 μM, and then the final concentration to be tested was obtained by sequential 3-fold serial dilutions in extracellular solution containing 0.2% DMSO.
7.4.2 The highest test concentration was 40 μM, in a total of 6 concentrations of 40, 13.33, 4.44, 1.48, 0.49 and 0.16 μM respectively.
7.4.3 The content of DMSO in the final test concentration was not more than 0.2%, and this concentration of DMSO had no effect on hERG potassium channel.
The experimental data were analyzed by XLFit software.

[1] = Plasma protein binding rate, rat plasma; format: in vitro ADME; settings: 37° C.
Experimental: The embodiment compound was prepared into a 1 mM solution A with DMSO.
Solution A was added to the plasma solution and prepared into a 5 μM solution B.
• 1) 200 μL of solution B was added into the membrane. • 2) 350 μL of PBS was added to the outside of the membrane. • 3) Incubating in a 37° C. water bath for 6 hours. • 4) The samples were processed for dilution and detected by mass spectrometry.
• Instrument: Shimadzu LC-20 AD; • Chromatographic column: phenomenex Gemiu® C18 (50*4.6 mm, 5 μM particle size); • Mobile phase: A: Acetonitrile, B: 0.1% formic acid solution 0-0.5 min: 5% A→90% A, 2.0-2.1 min: 90% A→5% A; flow rate: 0.8 mL/min; running time: 5.0 min; injection volume: 5 μL.
• Instrument: API4000 Liquid Chromatography-Mass Spectrometry, AB, USA; • the ion source was electrospray ionization source (ESI); • the temperature of dry gas (N2) was 500° C.; • electrospray voltage was 5500V; • the detection method was positive ion detection; • the scanning mode was selective response monitoring (MRM); the scanning time was 0.1 s.

[2] = test system: Mia PaCa-2 cells (KRAS G12C mutant cell line); experiment: Inhibition of Mia PaCa-2 cell proliferation (CellTiter-Glo, 72 h); format: cell-based, human; settings: Homo sapiens
Outline: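 Cells were seeded overnight at 37 °C, 5% CO2, then exposed to serially diluted compound (DMSO/medium) alongside a solvent control for 72 h. Viability was read by CellTiter-Glo luminescence, and IC50 was derived by nonlinear regression of inhibition rate against concentration.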

In the case of C=CC(=O)N1C[C@H](C)N(c2nc(=O)n(-c3c(SC)ccnc3C(C)C)c3nc(-c4c(O)cccc4F)c(F)cc23)C[C@H]1C (single isomer, unassigned) [Embodiment 114-1], the pIC50 (hERG potassium channel) was < 4.52, the fraction unbound at 6 h, 5 μM [1] was 0.095 and the pIC50 [2] was 7.54.

For C=CC(=O)N1C[C@H](C)N(c2nc(=O)n(-c3c(SC)ccnc3C(C)C)c3nc(-c4c(O)cccc4F)c(Cl)cc23)C[C@H]1C (single isomer, unassigned) [Embodiment 166-1], the pIC50 (hERG potassium channel) was < 4.52, the fraction unbound at 6 h, 5 μM [1] was 0.046 and the pIC50 [2] was 7.96.

With C=CC(=O)N1C[C@H](C)N(c2nc(=O)n(-c3c(SC)ccnc3C(C)C)c3nc(-c4c(N)ccc(Cl)c4F)c(Cl)cc23)C[C@H]1C (single isomer, unassigned) [Embodiment 165-1] the pIC50 (hERG potassium channel) was < 4.52, the fraction unbound at 6 h, 5 μM [1] was 0.021 and the pIC50 [2] was 8.48.
